Measured values: ChEMBL document CHEMBL1150977, “A quantitative analysis of kinase inhibitor selectivity” (Nat Biotechnol, 2008)

Columns and labels:
[1] = molecular target: Tyrosine-protein kinase ABL1 (Homo sapiens, UniProt P00519, T315I)
[2] = molecular target: Ribosomal protein S6 kinase alpha-3 (Homo sapiens, UniProt P51812)
[3] = molecular target: T1, Mitogen-activated protein kinase 15 (Homo sapiens, UniProt Q8TD08)
T1 sequence (Q8TD08 whole entry): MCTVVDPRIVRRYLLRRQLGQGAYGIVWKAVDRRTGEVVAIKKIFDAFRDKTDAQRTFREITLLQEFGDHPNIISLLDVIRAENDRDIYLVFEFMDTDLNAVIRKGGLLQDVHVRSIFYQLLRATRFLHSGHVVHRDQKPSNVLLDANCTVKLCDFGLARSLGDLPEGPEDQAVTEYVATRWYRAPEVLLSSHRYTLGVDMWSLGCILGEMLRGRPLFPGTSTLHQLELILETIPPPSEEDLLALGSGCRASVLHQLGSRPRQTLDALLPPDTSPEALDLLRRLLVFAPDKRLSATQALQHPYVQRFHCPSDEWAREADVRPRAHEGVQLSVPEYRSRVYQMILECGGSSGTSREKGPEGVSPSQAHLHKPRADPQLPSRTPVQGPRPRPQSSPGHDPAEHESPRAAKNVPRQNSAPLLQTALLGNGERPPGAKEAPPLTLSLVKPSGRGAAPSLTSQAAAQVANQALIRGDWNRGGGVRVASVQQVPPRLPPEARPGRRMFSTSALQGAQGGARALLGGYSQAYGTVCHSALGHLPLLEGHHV

[4] = molecular target: Tyrosine-protein kinase ABL2 (Homo sapiens, UniProt P42684)
[5] = molecular target: Tyrosine-protein kinase ABL1 (Homo sapiens, UniProt P00519, Y253F)
[6] = molecular target: BMP-2-inducible protein kinase (Homo sapiens, UniProt Q9NSY1)
[7] = molecular target: Tyrosine-protein kinase SYK (Homo sapiens, UniProt P43405)
Ephrin type-A receptor 2 = Ephrin type-A receptor 2 (Homo sapiens, UniProt P29317)
Activin receptor type-2A = Activin receptor type-2A (Homo sapiens, UniProt P27037)
[8] = molecular target: T2, Serine/threonine-protein kinase STK11 (Homo sapiens, UniProt Q15831)
T2 sequence (Q15831 whole entry): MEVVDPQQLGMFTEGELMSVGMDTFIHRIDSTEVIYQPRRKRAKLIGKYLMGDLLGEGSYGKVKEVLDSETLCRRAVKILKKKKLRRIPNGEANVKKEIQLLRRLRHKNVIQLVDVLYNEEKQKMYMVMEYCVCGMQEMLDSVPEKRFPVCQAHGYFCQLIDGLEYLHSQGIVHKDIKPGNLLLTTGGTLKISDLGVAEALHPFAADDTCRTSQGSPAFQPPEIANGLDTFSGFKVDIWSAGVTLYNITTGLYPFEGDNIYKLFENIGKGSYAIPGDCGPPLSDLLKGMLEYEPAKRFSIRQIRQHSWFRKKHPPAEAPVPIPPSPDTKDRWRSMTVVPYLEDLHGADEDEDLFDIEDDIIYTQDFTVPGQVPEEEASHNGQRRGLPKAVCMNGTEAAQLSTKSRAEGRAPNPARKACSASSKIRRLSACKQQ

[9] = molecular target: Maternal embryonic leucine zipper kinase (Homo sapiens, UniProt Q14680)
[10] = molecular target: Receptor-type tyrosine-protein kinase FLT3 (Homo sapiens, UniProt P36888, ITD)
[11] = molecular target: Serine/threonine-protein kinase MRCK alpha (Homo sapiens, UniProt Q5VT25)
[12] = molecular target: Tyrosine-protein kinase CSK (Homo sapiens, UniProt P41240)
[13] = molecular target: T3, Serine/threonine-protein kinase tousled-like 1 (Homo sapiens, UniProt Q9UKI8)
T3 sequence (Q9UKI8 whole entry): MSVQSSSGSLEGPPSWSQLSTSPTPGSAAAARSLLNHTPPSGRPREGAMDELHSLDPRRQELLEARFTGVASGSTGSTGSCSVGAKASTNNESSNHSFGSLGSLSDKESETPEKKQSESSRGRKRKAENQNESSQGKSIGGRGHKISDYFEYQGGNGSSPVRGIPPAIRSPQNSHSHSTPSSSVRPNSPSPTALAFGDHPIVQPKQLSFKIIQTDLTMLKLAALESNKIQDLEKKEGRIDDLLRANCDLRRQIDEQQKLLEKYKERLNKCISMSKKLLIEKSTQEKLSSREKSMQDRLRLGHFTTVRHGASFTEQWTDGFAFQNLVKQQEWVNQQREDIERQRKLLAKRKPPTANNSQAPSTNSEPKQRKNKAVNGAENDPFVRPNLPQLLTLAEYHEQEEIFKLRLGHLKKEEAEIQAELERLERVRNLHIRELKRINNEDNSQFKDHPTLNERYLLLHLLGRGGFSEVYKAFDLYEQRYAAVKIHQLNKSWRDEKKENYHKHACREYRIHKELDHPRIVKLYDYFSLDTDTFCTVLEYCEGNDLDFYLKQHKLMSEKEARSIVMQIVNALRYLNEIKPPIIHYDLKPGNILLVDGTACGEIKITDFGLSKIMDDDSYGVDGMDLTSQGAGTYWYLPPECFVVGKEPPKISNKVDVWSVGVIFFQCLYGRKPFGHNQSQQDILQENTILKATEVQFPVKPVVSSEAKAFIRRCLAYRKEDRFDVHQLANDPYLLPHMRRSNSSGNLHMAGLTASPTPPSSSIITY

[14] = molecular target: Phosphatidylinositol 4,5-bisphosphate 3-kinase catalytic subunit alpha isoform (Homo sapiens, UniProt P42336, E545K)
Chain of Phosphatidylinositol 4,5-bisphosphate 3-kinase catalytic subunit alpha isoform (P42336 whole entry E545K, canonical isoform): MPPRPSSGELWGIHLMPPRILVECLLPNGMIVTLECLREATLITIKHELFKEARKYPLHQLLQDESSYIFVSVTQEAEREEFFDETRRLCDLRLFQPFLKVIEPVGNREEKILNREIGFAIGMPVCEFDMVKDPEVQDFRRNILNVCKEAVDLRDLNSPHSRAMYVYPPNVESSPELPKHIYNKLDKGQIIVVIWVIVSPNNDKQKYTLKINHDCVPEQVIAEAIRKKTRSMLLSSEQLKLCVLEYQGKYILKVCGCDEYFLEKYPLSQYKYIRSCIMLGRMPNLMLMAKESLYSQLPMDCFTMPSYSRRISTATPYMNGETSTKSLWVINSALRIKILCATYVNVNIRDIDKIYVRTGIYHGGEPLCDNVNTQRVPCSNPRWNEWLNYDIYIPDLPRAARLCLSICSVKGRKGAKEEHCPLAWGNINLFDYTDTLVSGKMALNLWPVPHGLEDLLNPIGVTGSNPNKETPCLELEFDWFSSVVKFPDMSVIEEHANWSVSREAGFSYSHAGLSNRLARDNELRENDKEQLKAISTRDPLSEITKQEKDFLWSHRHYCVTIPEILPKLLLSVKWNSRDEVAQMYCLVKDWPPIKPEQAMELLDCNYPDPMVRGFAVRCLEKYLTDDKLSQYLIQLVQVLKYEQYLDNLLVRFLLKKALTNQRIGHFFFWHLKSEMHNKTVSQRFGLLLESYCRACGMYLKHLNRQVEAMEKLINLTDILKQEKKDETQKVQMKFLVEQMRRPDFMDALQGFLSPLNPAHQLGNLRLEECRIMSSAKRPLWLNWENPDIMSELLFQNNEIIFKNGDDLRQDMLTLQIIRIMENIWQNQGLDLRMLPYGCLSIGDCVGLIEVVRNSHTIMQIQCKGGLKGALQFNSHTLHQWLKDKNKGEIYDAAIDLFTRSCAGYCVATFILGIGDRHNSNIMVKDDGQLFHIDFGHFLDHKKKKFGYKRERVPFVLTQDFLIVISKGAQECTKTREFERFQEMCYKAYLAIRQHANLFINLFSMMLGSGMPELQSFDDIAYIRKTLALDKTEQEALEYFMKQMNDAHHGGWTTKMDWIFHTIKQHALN

Chain of Maternal embryonic leucine zipper kinase (Q14680 whole entry): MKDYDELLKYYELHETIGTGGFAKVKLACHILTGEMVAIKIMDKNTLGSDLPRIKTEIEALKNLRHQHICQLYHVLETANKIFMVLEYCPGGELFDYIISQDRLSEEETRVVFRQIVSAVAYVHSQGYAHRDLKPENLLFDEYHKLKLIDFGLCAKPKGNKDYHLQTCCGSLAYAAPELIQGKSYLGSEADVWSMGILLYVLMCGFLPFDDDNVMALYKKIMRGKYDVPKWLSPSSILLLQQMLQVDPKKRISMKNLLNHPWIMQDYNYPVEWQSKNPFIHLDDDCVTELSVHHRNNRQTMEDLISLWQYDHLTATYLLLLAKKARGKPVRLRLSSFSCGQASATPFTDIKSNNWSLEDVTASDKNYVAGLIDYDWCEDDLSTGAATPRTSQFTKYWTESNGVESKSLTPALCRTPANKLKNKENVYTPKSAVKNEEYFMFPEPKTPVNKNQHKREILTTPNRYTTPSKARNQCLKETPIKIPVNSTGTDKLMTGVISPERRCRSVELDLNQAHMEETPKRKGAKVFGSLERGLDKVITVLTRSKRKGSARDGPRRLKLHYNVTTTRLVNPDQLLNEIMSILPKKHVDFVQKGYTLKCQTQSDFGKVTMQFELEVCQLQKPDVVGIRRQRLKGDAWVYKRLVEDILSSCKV
Chain of Tyrosine-protein kinase ABL2 (P42684 whole entry): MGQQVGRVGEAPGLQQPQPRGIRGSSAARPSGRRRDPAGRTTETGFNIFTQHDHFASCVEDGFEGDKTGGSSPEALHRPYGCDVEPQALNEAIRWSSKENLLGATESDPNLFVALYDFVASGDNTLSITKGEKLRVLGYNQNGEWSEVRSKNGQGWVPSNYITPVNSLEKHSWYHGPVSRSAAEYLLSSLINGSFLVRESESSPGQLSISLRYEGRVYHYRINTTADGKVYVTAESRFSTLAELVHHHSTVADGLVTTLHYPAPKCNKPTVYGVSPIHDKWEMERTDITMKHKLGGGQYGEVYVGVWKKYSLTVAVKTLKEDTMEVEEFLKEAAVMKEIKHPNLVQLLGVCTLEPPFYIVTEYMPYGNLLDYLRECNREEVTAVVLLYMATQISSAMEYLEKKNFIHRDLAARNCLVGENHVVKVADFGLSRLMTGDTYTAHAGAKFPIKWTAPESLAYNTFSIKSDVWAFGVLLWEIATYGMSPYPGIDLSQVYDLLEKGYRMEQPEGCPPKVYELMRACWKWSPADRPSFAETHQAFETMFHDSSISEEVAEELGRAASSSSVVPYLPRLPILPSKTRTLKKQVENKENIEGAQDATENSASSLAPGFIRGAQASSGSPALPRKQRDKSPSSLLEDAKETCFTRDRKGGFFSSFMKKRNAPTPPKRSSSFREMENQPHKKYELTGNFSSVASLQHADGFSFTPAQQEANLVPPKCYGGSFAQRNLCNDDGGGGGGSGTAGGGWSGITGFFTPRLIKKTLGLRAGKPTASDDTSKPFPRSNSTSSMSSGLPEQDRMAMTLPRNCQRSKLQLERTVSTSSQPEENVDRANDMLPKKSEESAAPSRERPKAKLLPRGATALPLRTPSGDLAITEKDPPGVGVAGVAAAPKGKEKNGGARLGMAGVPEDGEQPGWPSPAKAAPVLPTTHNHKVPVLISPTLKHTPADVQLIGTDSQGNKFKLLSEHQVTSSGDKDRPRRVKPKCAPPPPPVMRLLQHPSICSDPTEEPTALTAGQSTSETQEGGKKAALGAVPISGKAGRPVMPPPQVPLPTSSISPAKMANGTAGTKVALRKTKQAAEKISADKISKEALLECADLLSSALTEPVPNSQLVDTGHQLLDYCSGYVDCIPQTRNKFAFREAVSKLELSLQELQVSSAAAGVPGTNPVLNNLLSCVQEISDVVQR
Chain of Tyrosine-protein kinase CSK (P41240 whole entry): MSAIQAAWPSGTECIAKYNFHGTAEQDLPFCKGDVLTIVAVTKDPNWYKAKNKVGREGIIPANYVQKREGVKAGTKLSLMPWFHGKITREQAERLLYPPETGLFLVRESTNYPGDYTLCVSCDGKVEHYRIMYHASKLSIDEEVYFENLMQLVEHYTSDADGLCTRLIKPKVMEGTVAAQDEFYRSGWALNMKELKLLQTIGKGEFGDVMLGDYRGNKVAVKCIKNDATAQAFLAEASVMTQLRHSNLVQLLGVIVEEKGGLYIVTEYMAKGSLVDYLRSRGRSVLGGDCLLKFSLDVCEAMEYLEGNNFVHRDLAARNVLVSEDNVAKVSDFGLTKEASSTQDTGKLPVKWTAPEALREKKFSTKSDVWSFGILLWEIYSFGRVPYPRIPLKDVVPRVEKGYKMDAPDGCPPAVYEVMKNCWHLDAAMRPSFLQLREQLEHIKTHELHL
Chain of Ribosomal protein S6 kinase alpha-3 (P51812 whole entry): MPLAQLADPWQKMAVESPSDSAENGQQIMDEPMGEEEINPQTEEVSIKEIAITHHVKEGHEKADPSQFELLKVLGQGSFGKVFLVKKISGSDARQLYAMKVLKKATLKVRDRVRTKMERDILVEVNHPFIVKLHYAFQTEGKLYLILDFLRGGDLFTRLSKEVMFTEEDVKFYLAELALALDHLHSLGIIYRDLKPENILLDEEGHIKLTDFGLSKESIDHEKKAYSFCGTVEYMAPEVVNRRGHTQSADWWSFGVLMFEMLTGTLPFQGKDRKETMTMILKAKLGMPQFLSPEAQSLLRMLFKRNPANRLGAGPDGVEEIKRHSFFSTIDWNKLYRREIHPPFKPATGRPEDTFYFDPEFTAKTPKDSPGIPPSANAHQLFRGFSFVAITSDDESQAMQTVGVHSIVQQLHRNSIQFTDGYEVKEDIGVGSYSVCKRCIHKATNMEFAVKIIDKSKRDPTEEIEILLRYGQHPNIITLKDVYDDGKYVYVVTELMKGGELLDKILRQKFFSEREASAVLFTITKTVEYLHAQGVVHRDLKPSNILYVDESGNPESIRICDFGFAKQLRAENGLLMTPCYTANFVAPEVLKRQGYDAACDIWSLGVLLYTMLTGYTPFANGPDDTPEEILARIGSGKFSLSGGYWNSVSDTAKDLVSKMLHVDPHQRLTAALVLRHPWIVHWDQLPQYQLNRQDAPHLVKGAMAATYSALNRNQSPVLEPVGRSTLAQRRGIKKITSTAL
Chain of Ephrin type-A receptor 2 (P29317 whole entry): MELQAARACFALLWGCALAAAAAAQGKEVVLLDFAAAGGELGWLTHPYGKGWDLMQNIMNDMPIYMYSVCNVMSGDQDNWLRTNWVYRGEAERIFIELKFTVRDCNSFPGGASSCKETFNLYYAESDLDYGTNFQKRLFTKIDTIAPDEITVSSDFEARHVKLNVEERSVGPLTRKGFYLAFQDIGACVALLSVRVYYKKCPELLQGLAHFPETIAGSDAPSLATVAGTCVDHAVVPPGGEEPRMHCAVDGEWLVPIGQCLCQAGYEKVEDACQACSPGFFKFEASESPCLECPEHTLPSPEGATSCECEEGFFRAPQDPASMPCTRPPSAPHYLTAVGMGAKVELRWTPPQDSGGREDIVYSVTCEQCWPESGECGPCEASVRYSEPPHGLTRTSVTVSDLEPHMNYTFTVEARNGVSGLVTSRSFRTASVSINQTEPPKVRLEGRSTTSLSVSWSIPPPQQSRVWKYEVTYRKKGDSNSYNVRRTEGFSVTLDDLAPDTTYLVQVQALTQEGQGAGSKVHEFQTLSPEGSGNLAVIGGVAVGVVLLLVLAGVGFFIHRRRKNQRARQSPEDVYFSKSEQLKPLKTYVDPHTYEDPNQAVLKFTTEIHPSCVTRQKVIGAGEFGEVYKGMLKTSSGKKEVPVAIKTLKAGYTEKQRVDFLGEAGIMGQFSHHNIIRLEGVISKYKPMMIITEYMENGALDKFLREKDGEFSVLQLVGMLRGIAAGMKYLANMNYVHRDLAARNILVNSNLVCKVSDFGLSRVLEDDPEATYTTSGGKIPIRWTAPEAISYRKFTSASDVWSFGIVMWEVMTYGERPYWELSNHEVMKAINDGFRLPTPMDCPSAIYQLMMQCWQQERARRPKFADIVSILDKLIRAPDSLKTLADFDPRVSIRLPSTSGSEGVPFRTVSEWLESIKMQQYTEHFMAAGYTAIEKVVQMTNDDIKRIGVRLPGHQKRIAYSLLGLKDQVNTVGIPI

## COCC(=O)NC/C=C/c1ccc2ncnc(Nc3ccc(Oc4ccc(C)nc4)c(C)c3)c2c1 [CP-724714]
[1]
  Kd: > 10 µM
[2]
  Kd: > 10 µM
[3]
  Kd: > 10 µM
[4]
  Kd: > 10 µM
[5]
  Kd: > 10 µM
[6]
  Kd: > 10 µM
[7]
  Kd: > 10 µM
Ephrin type-A receptor 2
  Kd: > 10 µM
Activin receptor type-2A
  Kd: > 10 µM
[8]
  Kd: > 10 µM
[9]
  Kd: > 10 µM
[10]
  Kd: > 10 µM
[11]
  Kd: > 10 µM
[12]
  Kd: > 10 µM
[13]
  Kd: > 10 µM

## Nc1nc(Nc2ccc(S(N)(=O)=O)cc2)nn1C(=O)c1c(F)cccc1F [JNJ-7706621]
[4]
  Kd: > 10 µM
[14]
  Kd: > 10 µM
Ephrin type-A receptor 2
  Kd: > 10 µM
[8]
  Kd: > 10 µM
[9]
  Kd: > 10 µM
[11]
  Kd: > 10 µM
[12]
  Kd: > 10 µM

## CCOc1cc2ncc(C#N)c(Nc3ccc(F)c(Cl)c3)c2cc1NC(=O)/C=C/CN(C)C [PELITINIB]
[2]
  Kd: > 10 µM
[3]
  Kd: > 10 µM
[14]
  Kd: > 10 µM
[7]
  Kd: 7.2 µM
Ephrin type-A receptor 2
  Kd: > 10 µM
Activin receptor type-2A
  Kd: > 10 µM
[8]
  Kd: > 10 µM
[9]
  Kd: > 10 µM
[10]
  Kd: > 10 µM
[11]
  Kd: > 10 µM
[13]
  Kd: > 10 µM

## Oc1ccc(-c2nc(-c3ccncc3)c(-c3ccc(F)cc3)[nH]2)cc1 [SB-202190]
[1]
  Kd: > 10 µM
[2]
  Kd: > 10 µM
[3]
  Kd: > 10 µM
[4]
  Kd: > 10 µM
[5]
  Kd: > 10 µM
[14]
  Kd: > 10 µM
[6]
  Kd: > 10 µM
[7]
  Kd: > 10 µM
Ephrin type-A receptor 2
  Kd: > 10 µM
Activin receptor type-2A
  Kd: > 10 µM
[8]
  Kd: > 10 µM
[9]
  Kd: > 10 µM
[10]
  Kd: > 10 µM
[11]
  Kd: > 10 µM
[12]
  Kd: > 10 µM
[13]
  Kd: > 10 µM

## NC(=O)c1ccc(-c2nc(-c3ccc4c(c3)OCO4)c(-c3ccccn3)[nH]2)cc1 [SB-431542]
[1]
  Kd: > 10 µM
[2]
  Kd: > 10 µM
[3]
  Kd: > 10 µM
[4]
  Kd: > 10 µM
[5]
  Kd: > 10 µM
[14]
  Kd: > 10 µM
[6]
  Kd: > 10 µM
[7]
  Kd: > 10 µM
Ephrin type-A receptor 2
  Kd: > 10 µM
Activin receptor type-2A
  Kd: > 10 µM
[8]
  Kd: > 10 µM
[9]
  Kd: > 10 µM
[11]
  Kd: > 10 µM
[12]
  Kd: > 10 µM
[13]
  Kd: > 10 µM
